Source: patent publication US6541238B1, “Recombinant cellulose synthase” (Board of Regents, The University of Texas Systems, priority 1990, dated 2003)

How the values were obtained:
[1] = system: DNA from A. xylinum ATCC 53582 and ATCC 23769; test: DNA-DNA hybridization of 17-mer oligonucleotide probes with HindIII-digested total DNA; type: binding, Acetobacter xylinum; conditions: stringent hybridization conditions; HindIII digest
Procedure: Hybridization of the oligonucleotide probes with A. xylinum DNA was carried out using the eight oligonucleotides that were thus synthesized. […] In order to accomplish these studies, total DNA from A. xylinum ATCC 53582, A. xylinum ATCC 23769, and E. coil HB101 (a common strain of E. coli used in recombinant DNA experiments) was digested with HindIII and the fragments were separated on an agarose gel. After separation, the fragments were transferred by capillary action to a nylon membrane (GeneScreen; NEN Research Products) according to the procedure of Reed and Mann (1985). The DNA thus transferred was next hybridized with the ^32P-labeled oligonucleotide of the invention using standard procedures. Hybridization was accomplished in a solution with 5×SSC [1×SSC: 0.15M NaCl, 0.015M sodium citrate] at 45° C. for 16-24 hours. The filters were then washed with a solution containing reduced salt concentration. In all cases, the hybridization temperature was 5-7° C. below the dissociation temperature as described by Suggs, et al. (1981) applying the formula Td=2(A+T)+4(G+C).

[2] = biological target: T1, 83 kd polypeptide of cellulose synthase (Komagataeibacter xylinus, UniProt P0CW87); test: Photoaffinity labeling of purified cellulose synthase with [β-32P]5N3UDP-glc; type: binding, Acetobacter xylinum
T1 construct: endogenous in cells; host or cells: Acetobacter xylinum ATCC 53582; membranes solubilized with detergent, enzyme purified by cellulose entrapment
T1 sequence (P0CW87 1-723): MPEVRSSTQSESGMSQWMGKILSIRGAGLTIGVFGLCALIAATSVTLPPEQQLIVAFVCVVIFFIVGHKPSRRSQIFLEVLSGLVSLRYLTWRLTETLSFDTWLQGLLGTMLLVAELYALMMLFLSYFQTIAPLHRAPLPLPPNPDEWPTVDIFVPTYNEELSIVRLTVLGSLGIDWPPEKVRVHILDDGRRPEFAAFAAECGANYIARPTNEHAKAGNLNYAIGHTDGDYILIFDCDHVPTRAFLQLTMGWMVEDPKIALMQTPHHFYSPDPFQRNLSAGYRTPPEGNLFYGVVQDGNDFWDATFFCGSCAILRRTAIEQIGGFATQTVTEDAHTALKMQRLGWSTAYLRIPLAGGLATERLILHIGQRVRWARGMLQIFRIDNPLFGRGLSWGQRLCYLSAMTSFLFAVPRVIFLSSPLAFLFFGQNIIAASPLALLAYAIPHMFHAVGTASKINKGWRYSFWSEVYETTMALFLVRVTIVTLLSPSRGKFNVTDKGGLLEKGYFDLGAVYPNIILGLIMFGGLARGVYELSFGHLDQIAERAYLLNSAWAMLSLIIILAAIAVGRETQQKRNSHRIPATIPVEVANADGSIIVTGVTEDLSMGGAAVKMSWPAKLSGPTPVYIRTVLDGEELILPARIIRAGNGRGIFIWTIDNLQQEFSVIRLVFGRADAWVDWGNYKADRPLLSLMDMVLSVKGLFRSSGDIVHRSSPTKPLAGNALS
T1 sequence (P0CW87 742-1550 partner limits assumed): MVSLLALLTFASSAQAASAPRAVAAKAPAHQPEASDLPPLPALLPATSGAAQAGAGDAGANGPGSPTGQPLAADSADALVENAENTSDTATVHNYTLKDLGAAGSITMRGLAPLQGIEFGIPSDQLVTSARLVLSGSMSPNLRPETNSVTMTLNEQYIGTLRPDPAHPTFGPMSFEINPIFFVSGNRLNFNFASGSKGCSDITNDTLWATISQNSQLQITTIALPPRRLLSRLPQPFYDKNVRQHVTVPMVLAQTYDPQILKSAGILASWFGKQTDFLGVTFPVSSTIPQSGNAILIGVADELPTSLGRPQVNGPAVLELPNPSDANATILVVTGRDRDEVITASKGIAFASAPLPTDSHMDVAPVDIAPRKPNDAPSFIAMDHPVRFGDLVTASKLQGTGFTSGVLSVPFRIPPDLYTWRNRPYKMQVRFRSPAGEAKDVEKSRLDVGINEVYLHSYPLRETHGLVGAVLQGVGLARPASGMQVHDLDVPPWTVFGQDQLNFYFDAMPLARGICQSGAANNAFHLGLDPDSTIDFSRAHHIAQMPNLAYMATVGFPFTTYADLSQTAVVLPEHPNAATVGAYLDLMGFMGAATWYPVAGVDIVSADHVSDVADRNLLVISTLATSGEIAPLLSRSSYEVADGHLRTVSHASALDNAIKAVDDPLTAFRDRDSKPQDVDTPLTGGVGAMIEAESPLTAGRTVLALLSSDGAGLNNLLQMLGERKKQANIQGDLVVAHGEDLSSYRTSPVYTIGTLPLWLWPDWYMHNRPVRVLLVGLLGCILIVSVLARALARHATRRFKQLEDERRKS
Procedure: In addition to 20 μl of activator for cellulose synthase, each reaction mixture contained 50 mM Tris-HCl, 10 mM MgCl2, 1 mM CaCl2, 1 mM EDTA, the indicated protein quantity of enzyme sample, and 20 μM of [β-^32P]5N3UDP-glc (specific activity, 24 mCi/μmol) in a final reaction volume of 50 μl at pH 8.0-8.5. For competition experiments, the competitor, namely UDP-glc, was added at final concentrations of 0, 50, 100, and 300 μM, respectively. For saturation studies, [B-^32P]5N3UDP-glc was added at final concentrations of 20, 50, 100, 300 and 500 μM, respectively. […] Reactions were terminated by the addition of 0.3 ml of 7% perchloric acid. […] The Coomassie blue stained gel was dried and autoradiographed. Autoradiography was performed at −80° C. with Kodak X-Omat AR film and a Dupont Cronex intensifying screen. The molecular mass standards (Bio-Rad) were phosphorylase b (97kd), bovine serum albumin (66 kd), ovalbumin (45 kd), and carbonic anhydrase (31 kd).
The quantitation of the autoradiographs was measured by grey value discrimination of a digitized image (recorded on a Kontron/Zeiss IBAS Image Processing System).

[3] = biological target: cellulose synthase of Acetobacter xylinum, Triton X-100-solubilized enzyme preparation (TS) (Acetobacter xylinum ATCC 53582); test: Con A-Sepharose 4B column chromatography of TS; bound enzyme eluted with 0.3 M methyl alpha-D-mannopyranoside
cellulose synthase = biological target: T2, cellulose synthase (Komagataeibacter xylinus, UniProt P0CW87); test: Cellulose synthase enzyme assay (UDP-[14C]glc into alkali-insoluble material); type: biochemical, Acetobacter xylinum
T2 construct: endogenous in cells; host or cells: Acetobacter xylinum; washed or trypsinized membranes, Triton X-100, n-octyl glucoside or digitonin extracts, entrapment pellets EP1 and EP2
T2 sequence (P0CW87 1-723): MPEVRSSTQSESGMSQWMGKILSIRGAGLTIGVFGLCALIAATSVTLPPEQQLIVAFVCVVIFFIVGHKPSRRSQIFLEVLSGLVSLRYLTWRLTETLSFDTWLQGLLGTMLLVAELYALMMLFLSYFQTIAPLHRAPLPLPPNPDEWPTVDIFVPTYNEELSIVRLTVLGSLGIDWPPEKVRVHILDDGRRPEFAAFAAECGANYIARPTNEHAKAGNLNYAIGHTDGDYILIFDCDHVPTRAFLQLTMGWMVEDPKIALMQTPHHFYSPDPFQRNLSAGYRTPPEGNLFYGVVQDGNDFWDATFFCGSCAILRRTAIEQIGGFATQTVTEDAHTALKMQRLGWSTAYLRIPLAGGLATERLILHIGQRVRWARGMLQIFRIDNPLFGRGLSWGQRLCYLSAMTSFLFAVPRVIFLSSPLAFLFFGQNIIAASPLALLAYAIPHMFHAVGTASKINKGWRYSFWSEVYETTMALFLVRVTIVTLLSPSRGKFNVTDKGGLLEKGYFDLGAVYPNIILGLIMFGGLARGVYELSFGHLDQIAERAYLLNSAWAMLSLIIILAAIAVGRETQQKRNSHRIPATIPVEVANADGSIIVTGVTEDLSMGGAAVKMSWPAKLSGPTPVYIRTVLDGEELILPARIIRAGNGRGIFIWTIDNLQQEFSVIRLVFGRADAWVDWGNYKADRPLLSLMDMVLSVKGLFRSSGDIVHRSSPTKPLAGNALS
T2 sequence (P0CW87 742-1550 partner limits assumed): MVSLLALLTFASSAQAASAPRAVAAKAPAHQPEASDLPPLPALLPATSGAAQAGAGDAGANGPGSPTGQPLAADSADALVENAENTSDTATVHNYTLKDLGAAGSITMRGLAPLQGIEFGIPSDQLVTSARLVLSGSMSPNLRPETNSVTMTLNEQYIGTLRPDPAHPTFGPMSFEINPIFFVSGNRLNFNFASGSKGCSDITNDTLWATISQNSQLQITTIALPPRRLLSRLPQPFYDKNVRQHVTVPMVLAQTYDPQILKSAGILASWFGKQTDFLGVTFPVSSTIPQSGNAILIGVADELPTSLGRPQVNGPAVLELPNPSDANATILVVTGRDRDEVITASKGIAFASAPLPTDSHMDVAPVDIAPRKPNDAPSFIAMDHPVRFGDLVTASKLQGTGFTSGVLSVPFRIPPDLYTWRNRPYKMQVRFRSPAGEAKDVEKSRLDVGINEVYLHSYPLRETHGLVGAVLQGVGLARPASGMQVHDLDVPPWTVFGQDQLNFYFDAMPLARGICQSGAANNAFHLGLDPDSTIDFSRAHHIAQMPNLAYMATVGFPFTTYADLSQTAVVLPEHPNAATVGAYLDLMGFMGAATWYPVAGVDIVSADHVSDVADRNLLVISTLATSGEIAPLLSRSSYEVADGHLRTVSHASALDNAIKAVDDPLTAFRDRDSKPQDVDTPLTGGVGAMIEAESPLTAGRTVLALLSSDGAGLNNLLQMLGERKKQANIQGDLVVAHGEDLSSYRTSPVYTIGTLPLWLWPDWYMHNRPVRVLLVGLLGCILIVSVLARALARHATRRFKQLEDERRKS
Procedure: Enzyme Assay—Assays contained a final volume of […]: 20 μl of 0.5 M Tris-HCl (pH 9.6) containing 50 mM MgCl2 and 5 mM EDTA, 20 μl of 0.1 M MgCl2, 20 μl of 10 MM CaCl2, 25 μl of TME buffer, 25 μl of H2O, 20 μl of crude Gx, and 50 μl of enzyme sample. […] The reaction was stopped with 2 ml of 0.5 M NaOH, and the radioactivity in alkali-insoluble materials was counted after filtration through glass-fiber filters, as described in detail (Bureau and Brown 1987).
Protein Determination—Protein concentrations were determined according to the method of Bradford (1976), using the protein assay kit of Bio-Rad Laboratories. A modification of the Lowry procedure (Markwell 1978) was used only with membrane preparations. In both cases, bovine serum albumin was used as a standard.

In the case of 5′-ATGTCICAGTGGATGGG-3′ [83-1G], the “hybridization (homology) with A. xylinum DNA” value [1] is reported as “showed homology with a single HindIII fragment”.

[N-]=[N+]=Nc1cn([C@@H]2O[C@H](COP(=O)(O)OP(=O)(O)O[C@H]3O[C@H](CO)[C@@H](O)[C@H](O)[C@H]3O)[C@@H](O)[C@H]2O)c(=O)[nH]c1=O [[β-^32P]5N3UDP-glc] was tested, and the “probe concentration at which saturation of photoinsertion was being obtained” value ([2]; 83 kd protein band) was “above 100 μM” and the Kd ([2]; probe 20-500 μM, 83 kd polypeptide, read-out: kd value, saturation of cellulose synthase photolabeling) was 68 µM.

With Nc1nc2c(ncn2[C@@H]2O[C@@H]3COP(=O)(O)O[C@H]4[C@@H](O)[C@H](n5cnc6c(=O)[nH]c(N)nc65)O[C@@H]4COP(=O)(O)O[C@H]3[C@H]2O)c(=O)[nH]1 [c-di-GMP, bis-(3′,5′)-cyclic diguanylic acid] the “increase of photoincorporation into the 83 kd band in the presence of activator” value ([2]; purified preparation, FIG. 8 lane 6 vs lane 5) was 45%.

For “Concanavalin A (Con A) Sepharose 4B (from UniProt P02866 30-281)”, the total enzyme activity recovered on elution from the Con A-Sepharose column [3] was over 90%.

B1: trypsin: trypsin (EC 3.4.21.4), Sigma (protein, UniProt P00760 24-246, looked up)
Serine protease 1: IVGGYTCGANTVPYQVSLNSGYHFCGGSLINSQWVVSAAHCYKSGIQVRLGEDNINVVEGNEQFISASKSIVHPSYNSNTLNNDIMLIKLKSAASLNSRVASISLPTSCASAGTQCLISGWGNTKSSGTSYPDVLKCLKAPILSDSSCKSAYPGQITSNMFCAGYLEGGKDSCQGDSGGPVVCSGKLQGIVSWGSGCAQKNKPGVYTKVCNYVSWIKQTIASN
For B1, the “effect of trypsin on enzyme activity of washed membranes or TS” value (cellulose synthase; 30 minutes at 25° C.) was “did not effect enzyme activity” and the “effect of trypsin on enzyme activity of the EP1 fraction from DS” value (cellulose synthase; 1 hour at 25° C.) was “enzyme activity was still maintained”.
